From the NIST ThermoML archive (doi:10.1021/je700542v)
Where “and” joins values, the source holds several entries; their conditions need not be identical. Equal values may be shown once.

Conditions: Crystal

[Cu+2].[F-].[F-] [copper difluoride]
Conditions	vapor or sublimation pressure
881 K	2.188e-05 kPa
886 K	2.951e-05 kPa
895 K	4.365e-05 kPa
896 K	3.715e-05 kPa and 4.365e-05 kPa
897 K	4.365e-05 kPa
900 K	4.365e-05 kPa
901 K	5.129e-05 kPa
902 K	5.129e-05 kPa
903 K	5.888e-05 kPa
906 K	5.888e-05 kPa
908 K	5.888e-05 kPa
909 K	8.128e-05 kPa
911 K	6.607e-05 kPa
912 K	8.912e-05 kPa
913 K	7.413e-05 kPa
914 K	8.128e-05 kPa
915 K	8.912e-05 kPa and 7.413e-05 kPa
918 K	7.413e-05 kPa
919 K	0.0001023 kPa
921 K	0.0001175 kPa
922 K	0.0001023 kPa and 9.55e-05 kPa
924 K	0.0001175 kPa
925 K	0.0001096 kPa
928 K	0.0001175 kPa
929 K	0.0001318 kPa
930 K	0.0001318 kPa and 0.0001479 kPa and 0.0001622 kPa
931 K	0.0001096 kPa
932 K	0.0001622 kPa
934 K	0.0001479 kPa
939 K	0.0001905 kPa and 0.0001778 kPa
940 K	0.0001905 kPa and 0.0002188 kPa
941 K	0.0001778 kPa
942 K	0.0002042 kPa
943 K	0.0002042 kPa
944 K	0.0001905 kPa
948 K	0.0002512 kPa and 0.0002344 kPa
949 K	0.0002512 kPa
950 K	0.000309 kPa
952 K	0.0002818 kPa and 0.000263 kPa
953 K	0.0002818 kPa
955 K	0.000309 kPa
956 K	0.0002951 kPa and 0.0002818 kPa
959 K	0.0003715 kPa and 0.0003548 kPa
960 K	0.0003802 kPa
961 K	0.0004365 kPa
964 K	0.0004266 kPa
965 K	0.0003802 kPa and 0.0004074 kPa
969 K	0.0005012 kPa [middle of 4 runs]
970 K	0.0005888 kPa
973 K	0.0005495 kPa and 0.0005129 kPa
974 K	0.0005129 kPa
976 K	0.0006166 kPa
978 K	0.0006607 kPa
979 K	0.0006607 kPa and 0.0007413 kPa
982 K	0.0006607 kPa
983 K	0.0007413 kPa
984 K	0.0006761 kPa
986 K	0.0008128 kPa and 0.0008318 kPa
988 K	0.0008318 kPa
989 K	0.0007943 kPa
990 K	0.0008511 kPa
992 K	0.0009772 kPa
993 K	0.001023 kPa
996 K	0.001122 kPa and 0.001097 kPa
998 K	0.001122 kPa and 0.001023 kPa
999 K	0.001097 kPa
1002 K	0.001288 kPa
1003 K	0.00123 kPa
1005 K	0.001445 kPa and 0.001412 kPa
1006 K	0.001412 kPa
1007 K	0.001349 kPa
1008 K	0.001445 kPa
1011 K	0.001698 kPa
1013 K	0.00182 kPa
1014 K	0.001862 kPa
1015 K	0.001906 kPa and 0.001778 kPa
1016 K	0.001738 kPa
1020 K	0.002188 kPa and 0.001995 kPa
1023 K	0.002455 kPa
1024 K	0.002455 kPa
1025 K	0.00257 kPa and 0.002455 kPa and 0.002239 kPa
1030 K	0.00263 kPa
1032 K	0.00309 kPa
1033 K	0.003162 kPa
1051 K	0.005129 kPa

[Ag+].[F-] [silver fluoride]
Conditions	vapor or sublimation pressure
880 K	5.754e-05 kPa
891 K	5.248e-05 kPa
894 K	7.763e-05 kPa
897 K	7.763e-05 kPa
904 K	8.318e-05 kPa
910 K	0.0001549 kPa and 9.772e-05 kPa and 0.0001047 kPa
912 K	0.0001047 kPa
913 K	0.0001349 kPa
914 K	0.0001549 kPa
917 K	0.0001549 kPa
920 K	0.0002291 kPa and 0.0001549 kPa and 0.000166 kPa
921 K	0.0001738 kPa
925 K	0.000166 kPa
928 K	0.0002344 kPa
929 K	0.000195 kPa and 0.0002089 kPa
931 K	0.0001738 kPa and 0.0002512 kPa
933 K	0.0002089 kPa
936 K	0.0002692 kPa
938 K	0.0002692 kPa
939 K	0.0003715 kPa
941 K	0.0002399 kPa
942 K	0.0002692 kPa
947 K	0.0004074 kPa
948 K	0.000309 kPa and 0.0004266 kPa
949 K	0.0005248 kPa and 0.0003467 kPa and 0.0003715 kPa
955 K	0.0003715 kPa
956 K	0.0004266 kPa
958 K	0.0005012 kPa and 0.0004677 kPa
965 K	0.000537 kPa and 0.0005012 kPa
966 K	0.0006918 kPa
967 K	0.0006761 kPa
968 K	0.0008913 kPa
974 K	0.0006456 kPa
975 K	0.0006761 kPa
977 K	0.0007244 kPa and 0.0007763 kPa
978 K	0.0008511 kPa
979 K	0.0008913 kPa
984 K	0.001047 kPa
985 K	0.000871 kPa and 0.000912 kPa and 0.0009772 kPa
986 K	0.001445 kPa
987 K	0.0008913 kPa
990 K	0.001175 kPa
994 K	0.001097 kPa and 0.001175 kPa
995 K	0.001698 kPa
996 K	0.001349 kPa and 0.001071 kPa
1000 K	0.001479 kPa and 0.001585 kPa
1004 K	0.001445 kPa
1005 K	0.00123 kPa
1008 K	0.002239 kPa
1010 K	0.001862 kPa
1012 K	0.00166 kPa and 0.001778 kPa
1013 K	0.001995 kPa and 0.001412 kPa
1014 K	0.001738 kPa
1017 K	0.00263 kPa
1019 K	0.002399 kPa
1022 K	0.002089 kPa and 0.002239 kPa
1025 K	0.002344 kPa
1026 K	0.001995 kPa
1031 K	0.002455 kPa and 0.00263 kPa
1034 K	0.00257 kPa
1036 K	0.003311 kPa
1037 K	0.003548 kPa
1040 K	0.00309 kPa and 0.003311 kPa
1049 K	0.003715 kPa and 0.003981 kPa
1057 K	0.004467 kPa and 0.004786 kPa
